Data published in ChEMBL document CHEMBL1150915, “Dehydroradiosumin, a trypsin inhibitor from the cyanobacterium Anabaena cylindrica” (J Nat Prod, 1998).
Converted amounts (≈) assume the structure as drawn. The source made the active and inactive calls. The calls are words filed in the database; no cut-off is given here.

Key:
[1] = Inhibition of elastase at 100 ug/mL
[2] = Inhibition of chymotrypsin at 100 ug/mL
[3] = Inhibition of trypsin
[4] = target: Plasminogen (Homo sapiens, UniProt P00747); test: Inhibition of plasmin
[5] = target: Prothrombin (Homo sapiens) (UniProt P00734); test: Inhibition of thrombin at 100 ug/mL
[6] = target: T1, Papain (Carica papaya) (UniProt P00784); test: Inhibition of Carica papaya papain at 100 ug/mL
T1 sequence (whole entry): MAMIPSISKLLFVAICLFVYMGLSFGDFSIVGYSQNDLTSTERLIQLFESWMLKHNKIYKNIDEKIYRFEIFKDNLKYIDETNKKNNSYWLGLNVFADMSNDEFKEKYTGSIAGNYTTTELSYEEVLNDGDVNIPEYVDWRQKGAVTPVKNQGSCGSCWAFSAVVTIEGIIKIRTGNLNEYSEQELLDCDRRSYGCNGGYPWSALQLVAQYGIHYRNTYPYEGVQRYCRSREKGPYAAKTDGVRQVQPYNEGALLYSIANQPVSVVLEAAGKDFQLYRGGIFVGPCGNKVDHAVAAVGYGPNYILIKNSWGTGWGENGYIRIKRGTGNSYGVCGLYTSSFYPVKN

Plasminogen, sequence (P00747 97-580 limits assumed): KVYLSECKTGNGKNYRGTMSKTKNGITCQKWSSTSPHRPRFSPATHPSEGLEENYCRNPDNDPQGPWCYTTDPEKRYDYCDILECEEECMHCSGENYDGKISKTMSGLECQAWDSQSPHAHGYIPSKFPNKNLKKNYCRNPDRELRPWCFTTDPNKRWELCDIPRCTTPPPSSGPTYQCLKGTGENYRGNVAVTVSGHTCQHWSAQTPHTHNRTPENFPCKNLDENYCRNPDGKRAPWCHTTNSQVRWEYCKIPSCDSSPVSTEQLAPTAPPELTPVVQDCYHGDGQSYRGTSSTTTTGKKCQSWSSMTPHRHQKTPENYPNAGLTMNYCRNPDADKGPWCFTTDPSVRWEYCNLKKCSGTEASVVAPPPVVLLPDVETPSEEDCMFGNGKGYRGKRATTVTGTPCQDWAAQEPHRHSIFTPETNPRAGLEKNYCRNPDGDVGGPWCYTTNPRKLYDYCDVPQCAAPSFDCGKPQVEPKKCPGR
Plasminogen, sequence (P00747 581-810 limits assumed): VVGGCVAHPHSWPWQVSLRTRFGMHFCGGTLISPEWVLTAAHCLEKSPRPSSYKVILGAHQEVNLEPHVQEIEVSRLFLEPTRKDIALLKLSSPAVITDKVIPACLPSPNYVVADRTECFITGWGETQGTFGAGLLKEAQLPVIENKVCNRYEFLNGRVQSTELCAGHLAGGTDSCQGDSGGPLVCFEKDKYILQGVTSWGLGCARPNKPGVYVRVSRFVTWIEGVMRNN

- Activity [1]: inactive
- Activity [2]: inactive
- IC50 [3]: 0.1 µg/mL (≈ 0.232 µM)
- IC50 [4]: 209 µM
- Activity [5]: inactive
- Activity [6]: inactive
Compound: CC(=O)N[C@@H](/C=C1/C=C[C@H](N)CC1)C(=O)N[C@@H](/C=C1/C=C[C@H](NC(C)=O)CC1)C(=O)O [DEHYDRORADIOSUMIN]
